Test results taken from patent publication US9717772B2, “Interval therapy for the treatment of loss of eyesight in humans with glaucoma and other degenerative eye diseases” (Ramot at Tel-Aviv University Ltd., priority 2012, dated 2017).
Non-standard residues stand in square brackets, D forms with d. Residues, ends and D or L forms follow the SMILES beside them. Aib = CC(C)(N)C(=O)O

Experiments:
[1] = Half-life and concentrations of substance in the rat / vitreal space of the eye; assay type: in vivo
Description: In a further experiment, rats are treated systemically (s.c.) and the experiment is repeated as above. The aim of this study is to verify whether systemic administration produces sufficiently high concentrations in the eye. Therefore, additionally, concentrations of substances of the instant invention are analyzed in the vitreal space of the eye. In animals treated systemically with experimental substances, there is a decrease in RGC apoptosis at least at one time point assessed and significant concentrations of the experimental substances are detected in the vitreal space of the eye.
The experiment is repeated as described above, except that substance is applied (s.c.) once 24 hrs before induction of glaucoma.
In another animal study with glaucomatous rats (procedure as described above, Morrison model) D-Trp-Aib (SEQ ID NO. 30) is applied 3 days prior to the induction of glaucoma (one single s.c injection). […] The explanation of this unexpected finding is that the pretreatment with D-Trp-Aib (SEQ ID NO. 30) leads to formation of non-toxic bulky Aβ aggregates (possibly micro non-toxic bulky Aβ aggregates) consisting of D-Trp-Aib (SEQ ID NO. 30) and physiologically Aβ that is ubiquitously prevailing at low concentrations. These non-toxic bulky Aβ aggregates function in isolating toxic Aβ after glaucoma induction even if the Aβ is released at higher concentrations.

[2] = tested on: CA1 region of the hippocampus (Aβ1-42 inhibition of LTP); assay: Long-term potentiation (LTP) of fEPSPs in hippocampal slices after Aβ1-42 aggregated with or without D-Trp-Aib; assay type: cell-based, mice; conditions: Aβ1-42 50 nM aggregated under serial dilution conditions without D-Trp-Aib
Description: Aβ1-42 (order number 62-0-80, batch Y11042T1, American Peptide Company, Sunnyvale, Calif. 94086, U.S.A.) is suspended in 100% HFIP (Sigma Aldrich) to approximately 1 mg/ml (2 mg dissolved in 2 ml HFIP) and shaken at 37° C. for 1.5 hours in tightly sealed Eppendorf vials. This is allowed to cool to room temperature and then the solution is portioned into aliquots and the HFIP removed by evaporation using a Speedvac for approximately 30 minutes. When dry, the Aβ1-42 is stored at −20° C. The Aβ1-42 is dissolved in anhydrous DMSO (Sigma Aldrich) to a concentration of 100 fold that required in PBS (i.e. 10 mM for 100 μM) with the aid of an ultrasonic water bath with/without D-Trp-Aib (SEQ ID NO. 30) (i.e. for a 10:1 ratio with D-Trp-Aib (SEQ ID NO. 30) 100 mM for 10 mM Aβ1-42). This solution is then immediately diluted in PBS to a final concentration of 100 μM Aβ in 1% DMSO. These solutions are allowed to aggregate at room temperature for various times (e.g. 1 hour, 1 day, 1 week) before being used. […]
Extracellular recordings of field excitatory postsynaptic potentials (fEPSPs) are obtained from the dendritic region of the CA1 region of the hippocampus using glass micropipettes (1-2 MW) filled with superfusion solution. […] Amplified fEPSPs and NMDA-EPSCs are filtered (3 kHz), digitized (15 kHz) and measured and plotted online, using the “LTP-program”-software. […]

| Compound | detectability in the animal at the time point of glaucoma induction ([1]; 3 days after one single s.c injection) | half-life ([1]; in vivo, in the rat) [h] | inhibition of LTP [2] |
| --- | --- | --- | --- |
| CC(C)(NC(=O)[C@H](N)Cc1c[nH]c2ccccc12)C(=O)O [D-Trp-Aib] (H-[dW]-[Aib]-OH; N-terminus and C-terminus assumed) | no longer detectable | 1 to 2 | – |
| Aβ1-42: lyophilized β-amyloid Aβ1-42 peptide (Bachem / American Peptide Company) used as toxic stimulus | – | – | strong inhibition of LTP |
